Test results: patent US5200409A, “Composition and use of substituted 1,3-dithiolo-and 1,4-dithiinoquinoxalines as an antimicrobial” (The Dow Chemical Company, priority 1992, dated 1993)
In brackets after ≈: the same amount, converted by molar mass. Read-outs that look alike come from different tables or passages of the source.

Legend:
[1] = tested on: Pseudomonas aeruginosa (Pa); experiment: Minimum inhibitory concentration (MIC) in nutrient agar; format: cell-based, Pseudomonas aeruginosa ATCC 10145; conditions: 48 hours
Procedure: (§1) The minimum inhibitory concentration (MIC) for the compounds listed in Table I is determined for 9 bacteria, using nutrient agar: and 7 yeast and fungi, using malt yeast agar. A one percent solution of the test compound is prepared in a mixture of acetone and water. Nutrient agar is prepared at pH 6.8, representing a neutral medium, and at pH 8.2, representing an alkaline medium. The nutrient agars are prepared by adding 23 g of nutrient agar to one-liter of deionized water. In addition, the alkaline medium is prepared by adjusting a 0.04M solution of N-[tris-(hydroxymethyl)methyl]-glycine buffered deionized water with concentrated sodium hydroxide to a pH of […]. Malt yeast agar is prepared by adding 3 g yeast extract and 45 g malt agar per liter of deionized water. The specific agar is dispensed in 30 ml aliquots into 25×200 mm test tubes, capped and autoclaved for 15 minutes at 115° C. The test tubes containing the agar are cooled in a water bath until the temperature of the agar is 48° C. Then, an appropriate amount of the one percent solution of the test compound is added (except in the controls where no compound is added) to the respective test tubes so that the final concentrations are 500, 250, 100, 50, 25, 10, 5, 2.5, 1.0 and zero parts per million of the test compound in the agar, thus having a known concentration of test compound dispersed therein. The contents of the test tubes are then transferred to respective petri plates. After drying for 24 hours, the petri plates containing nutrient agar are inoculated with bacteria and those containing malt yeast agar are inoculated with yeast and fungi.
(§2) The inoculation with bacteria is accomplished by using the following procedure. Twenty-four hour-cultures of each of the bacteria are prepared by incubating the respective bacteria in tubes containing nutrient broth for 24 hours at 30° C. in a shaker. Dilutions of each of the 24 hour-cultures are made so that nine separate suspensions (one for each of the nine test bacteria) are made, each containing 10^8 colony forming units (CFU) per ml of suspension of a particular bacteria. Aliquots of 0.3 ml of each of the bacterial suspensions are used to fill the individual wells of Steer's Replicator. For each microbial suspension, 0.3 ml was used to fill three wells (i.e., three wells of 0.3 ml each) so that for the nine different bacteria, 27 wells are filled. The Steer's Replicator is then used to inoculate both the neutral and alkaline pH nutrient agar petri plates.
(§3) The inoculated petri plates are incubated at 30° C. for 48 hours and then read to determine if the test compound which is incorporated into the agar prevented growth of the respective bacteria.
(§4) Table II lists the bacteria, yeast and fungi used in the MIC test described above along with their respective American Type Culture Collection (ATCC) identification numbers.

[2] = tested on: Salmonella choleraesuis (Sc); experiment: as above; format: cell-based, Salmonella choleraesuis ATCC 10708; conditions: Salmonella enterica
Procedure: as §1, §2, §3, §4

[3] = tested on: Klebsiella pneumoniae (Kp); experiment: as above; format: cell-based, Klebsiella pneumoniae ATCC 8308
Procedure: as §1, §2, §3, §4

[4] = tested on: Fusarium oxysporum (Fo); experiment: Minimum inhibitory concentration (MIC) in malt yeast agar; format: cell-based, Fusarium oxysporum ATCC 48112; conditions: read-out: Minimum Inhibitory Concentration, Fo
Procedure: as §1
(§5) The inoculation with the yeast and fungi is accomplished as follows. Cultures of yeast and fungi are incubated for seven days on malt yeast agar at 30° C. These cultures are used to prepare suspensions by the following procedure. A suspension of each organism is prepared by adding 10 ml of sterile saline and 10 microliters of octylphenoxy polyethoxy ethanol to the agar slant of yeast or fungi. The sterile saline/octylphenoxy polyethoxy ethanol solution is then agitated with a sterile swab to suspend the microorganism grown on the slant. Each resulting suspension is diluted into sterile saline (1 part suspension: 9 parts sterile saline). Aliquots of these dilutions are placed in individual wells of Steer's Replicator and petri plates inoculated as previously described. The petri plates are incubated at 30° C. and read after 48 hours for yeast and 72 hours for fungi.
as §4

[5] = tested on: Escherichia coli (Ec); experiment: Minimum inhibitory concentration (MIC) in nutrient agar; format: cell-based, Escherichia coli ATCC 11229
Procedure: as §1, §2, §3, §4

[6] = tested on: Trichoderma viride (Tv); experiment: Minimum inhibitory concentration (MIC) in malt yeast agar; format: cell-based, Trichoderma viride ATCC 8678; conditions: read-out: Minimum Inhibitory Concentration, Tv
Procedure: as §1, §5, §4

[7] = tested on: Proteus vulgaris (Pv); experiment: Minimum inhibitory concentration (MIC) in nutrient agar; format: cell-based, Proteus vulgaris ATCC 881
Procedure: as §1, §2, §3, §4

[8] = tested on: Pseudomonas aeruginosa (PRD-10); experiment: as above; format: cell-based, Pseudomonas aeruginosa ATCC 15442
Procedure: as §1, §2, §3, §4

[9] = tested on: Saccharomyces cerevisiae (Sc); experiment: Minimum inhibitory concentration (MIC) in malt yeast agar; format: cell-based, Saccharomyces cerevisiae ATCC 4105; conditions: read-out: Minimum Inhibitory Concentration, Sc
Procedure: as §1, §5, §4

[10] = tested on: Aureobasidium pullulan (Ap); experiment: as above; format: cell-based, Aureobasidium pullulan ATCC 16622; conditions: malt yeast agar; 30° C.; 48 hours for yeast and 72 hours for fungi; read-out: Minimum Inhibitory Concentration, Ap
Procedure: as §1, §5, §4

[11] = tested on: Penicillium chrysogenum (Pc); experiment: as above; format: cell-based, Penicillium chrysogenum ATCC 9480; conditions: read-out: Minimum Inhibitory Concentration, Pc
Procedure: as §1, §5, §4

[12] = tested on: Bacillus subtilis (Bs); experiment: Minimum inhibitory concentration (MIC) in nutrient agar; format: cell-based, Bacillus subtilis ATCC 8473; conditions: 30° C., 48 hours, read-out: Minimum Inhibitory Concentration, Bs
Procedure: as §1, §2, §3, §4

[13] = tested on: Enterobacter aerogenes (Ea); experiment: as above; format: cell-based, Enterobacter aerogenes ATCC 13048; conditions: Klebsiella aerogenes
Procedure: as §1, §2, §3, §4

[14] = tested on: Aspergillus niger (An); experiment: Minimum inhibitory concentration (MIC) in malt yeast agar; format: cell-based, Aspergillus niger ATCC 16404; conditions: malt yeast agar; 30° C.; 72 hours for fungi; read-out: Minimum Inhibitory Concentration, An
Procedure: as §1, §5, §4

[15] = tested on: Staphylococcus aureus (Sa); experiment: Minimum inhibitory concentration (MIC) in nutrient agar; format: cell-based, Staphylococcus aureus ATCC 6538; conditions: 30° C., 48 hours, read-out: Minimum Inhibitory Concentration, Sa
Procedure: as §1, §2, §3, §4

[16] = tested on: Candida albicans (Ca); experiment: Minimum inhibitory concentration (MIC) in malt yeast agar; format: cell-based, Candida albicans ATCC 10231; conditions: malt yeast agar; 30° C.; 48 hours for yeast; read-out: Minimum Inhibitory Concentration, Ca
Procedure: as §1, §5, §4

[17] = 48 h, pH 6.8, read-out: Minimum Inhibitory Concentration, Sc
[18] = 48 h, pH 8.2, read-out: Minimum Inhibitory Concentration, Sc
[19] = 48 h, pH 8.2, read-out: Minimum Inhibitory Concentration, Kp
[20] = pH 6.8, nutrient agar, 30° C., 48 hours, read-out: Minimum Inhibitory Concentration, Kp
[21] = 48 h, pH 6.8, read-out: Minimum Inhibitory Concentration, Ec
[22] = 48 h, pH 8.2, read-out: Minimum Inhibitory Concentration, Ec
[23] = 48 h, pH 6.8, read-out: Minimum Inhibitory Concentration, Pv
[24] = 48 h, pH 8.2, read-out: Minimum Inhibitory Concentration, Pv
[25] = 48 h, pH 6.8, read-out: Minimum Inhibitory Concentration, PRD
[26] = 48 h, pH 8.2, read-out: Minimum Inhibitory Concentration, PRD
[27] = 48 h, pH 6.8, read-out: Minimum Inhibitory Concentration, Ea
[28] = 48 h, pH 8.2, read-out: Minimum Inhibitory Concentration, Ea
[29] = malt yeast agar, 30° C., 48 hours for yeast
[30] = malt yeast agar, 30° C., 72 hours for fungi
[31] = pH 6.8, nutrient agar, 30° C., 48 hours, read-out: Minimum Inhibitory Concentration, Sc
[32] = 48 h, pH 6.8, read-out: Minimum Inhibitory Concentration, Kp
[33] = pH 6.8, nutrient agar, 30° C., 48 hours, read-out: Minimum Inhibitory Concentration, Pv

| Structure (SMILES) | MIC ([1]; pH 6.8, 30° C.) | MIC ([1]; pH 8.2, 30° C.) | MIC [2, 18] | MIC [3, 19] | MIC [5, 21] | MIC [5, 22] | MIC [7, 24] | MIC [8, 25] | MIC [8, 26] | MIC [10] | MIC ([12]; pH 6.8, nutrient agar) | MIC ([12]; pH 8.2, nutrient agar) | MIC [13, 27] | MIC [13, 28] | MIC [14] | MIC ([15]; pH 6.8, nutrient agar) | MIC ([15]; pH 8.2, nutrient agar) | MIC [16] | MIC [9, 29] | MIC [11, 30] | also measured |
| --- | --- | --- | --- | --- | --- | --- | --- | --- | --- | --- | --- | --- | --- | --- | --- | --- | --- | --- | --- | --- | --- |
| N#CC1=C(C#N)Sc2nc3cc([N+](=O)[O-])c(Cl)cc3nc2S1 [G, 7-chloro-8-nitro-1,4-dithiino-(2,3-b)-quinoxaline-2,3-dicarbonitrile] | > 500 µg/mL | > 500 µg/mL | > 500 µg/mL | > 500 µg/mL | > 500 µg/mL | > 500 µg/mL | > 500 µg/mL | > 500 µg/mL | > 500 µg/mL | 25 µg/mL (≈ 71.9 µM) | 250 µg/mL (≈ 719 µM) | 100 µg/mL (≈ 288 µM) | > 500 µg/mL | > 500 µg/mL | 25 µg/mL (≈ 71.9 µM) | 25 µg/mL (≈ 71.9 µM) | 50 µg/mL (≈ 144 µM) | 25 µg/mL (≈ 71.9 µM) |  |  | MIC [2, 17]: > 500 µg/mL; MIC [3, 20]: 500 µg/mL (≈ 1440 µM); MIC ([4]; 72 h): 100 µg/mL (≈ 288 µM); MIC ([6]; 72 h): 100 µg/mL (≈ 288 µM); MIC [7, 23]: > 500 µg/mL; MIC ([9]; 48 h): 25 µg/mL (≈ 71.9 µM); MIC ([11]; 72 h): 100 µg/mL (≈ 288 µM) |
| N#CC1=C(C#N)Sc2nc3cc(C#N)ccc3nc2S1 [H, 7-cyano-1,4-dithiino-(2,3-b)-quinoxaline-2,3-dicarbonitrile] | > 500 µg/mL | > 500 µg/mL | > 500 µg/mL | > 500 µg/mL | > 500 µg/mL | > 500 µg/mL | > 500 µg/mL | > 500 µg/mL | > 500 µg/mL | < 10 µg/mL | < 10 µg/mL | 50 µg/mL (≈ 170 µM) | > 500 µg/mL | > 500 µg/mL | 25 µg/mL (≈ 85.2 µM) | 25 µg/mL (≈ 85.2 µM) | 50 µg/mL (≈ 170 µM) | 25 µg/mL (≈ 85.2 µM) | < 10 µg/mL | < 10 µg/mL | MIC [2, 17]: > 500 µg/mL; MIC [3, 20]: 500 µg/mL (≈ 1700 µM); MIC ([4]; 72 h): 50 µg/mL (≈ 170 µM); MIC ([6]; 72 h): 100 µg/mL (≈ 341 µM); MIC [7, 23]: 500 µg/mL (≈ 1700 µM) |
| COC(=O)c1ccc2nc3c(nc2c1)SC(C#N)=C(C#N)S3 [I, 7-carbomethoxy-1,4-dithiino-(2,3-b)-quinoxaline-2,3-dicarbonitrile] | 500 µg/mL (≈ 1530 µM) | > 500 µg/mL | > 500 µg/mL | > 500 µg/mL |  | > 500 µg/mL | > 500 µg/mL | 500 µg/mL (≈ 1530 µM) | > 500 µg/mL | < 10 µg/mL | < 10 µg/mL | 50 µg/mL (≈ 153 µM) | > 500 µg/mL | > 500 µg/mL | < 10 µg/mL | 25 µg/mL (≈ 76.6 µM) | 100 µg/mL (≈ 306 µM) | < 10 µg/mL | < 10 µg/mL | < 10 µg/mL | MIC [2, 31]: 100 µg/mL (≈ 306 µM); MIC [3, 32]: 50 µg/mL (≈ 153 µM); MIC [4, 30]: < 10 µg/mL; MIC ([5]; pH 6.8, nutrient agar, 30° C., 48 hours, read-out: Minimum Inhibitory Concentration, Ec): 100 µg/mL (≈ 306 µM); MIC [6, 30]: 25 µg/mL (≈ 76.6 µM); MIC [7, 33]: 100 µg/mL (≈ 306 µM) |
| N#CC1=C(C#N)Sc2nc3cc(C(F)(F)F)ccc3nc2S1 [K, 7-trifluoromethyl-1,4-dithiino-(2,3-b)-quinoxaline-2,3-dicarbonitrile] |  | > 500 µg/mL | > 500 µg/mL | > 500 µg/mL | 50 µg/mL (≈ 149 µM) | > 500 µg/mL | > 500 µg/mL |  | > 500 µg/mL | < 10 µg/mL | < 10 µg/mL | 100 µg/mL (≈ 297 µM) |  | > 500 µg/mL | 25 µg/mL (≈ 74.3 µM) | 25 µg/mL (≈ 74.3 µM) | 100 µg/mL (≈ 297 µM) | < 10 µg/mL | < 10 µg/mL | 25 µg/mL (≈ 74.3 µM) | MIC [2, 31]: 50 µg/mL (≈ 149 µM); MIC [3, 32]: 50 µg/mL (≈ 149 µM); MIC [4, 30]: 25 µg/mL (≈ 74.3 µM); MIC [6, 30]: 25 µg/mL (≈ 74.3 µM); MIC [7, 33]: 50 µg/mL (≈ 149 µM); MIC ([8]; pH 6.8, nutrient agar, 30° C., 48 hours, read-out: Minimum Inhibitory Concentration, PRD): 250 µg/mL (≈ 743 µM); MIC ([13]; pH 6.8, nutrient agar, 30° C., 48 hours, read-out: Minimum Inhibitory Concentration, Ea): 250 µg/mL (≈ 743 µM) |
